# Data published in patent US4670260A, “Antibiotic for animal feeds” (Bayer Aktiengesellschaft, priority 1984, dated 1987).
# Test system: Streptomyces strain BA 9
# Experiment: Growth inhibition of producing strain BA 9 by antibiotics
# Assay type: cell-based, Streptomyces sp.
# Conditions: 5 μg; ISP medium No. 1+, 28° C., 2 d
# Method: The optimum temperature is 28° (ISP medium No. 1^+, 5 d). No growth was observed on ISP medium No. 7 (tyrosine agar). Melanin is formed on ISP medium No. 6. The growth is inhibited by chloramphenicol (10 μg); erythromycin (10 μg), sulphafurazole (100 μg), streptomycin (10 μg), tetracycline (10 μg), chephaloridine (5 μg) fusidic acid (10 μg), lincomycin (10 μg) and novobiocib (5 μg) (ISP medium No. 1^+, 28° C., 2 d). Growth was good (substrate mycelium) on ISP media Nos. 3, 4 and 5, with sparse formation of aerial mycelium on ISP medium Nos. 3 and 5.
row,Structure (SMILES),growth inhibition of strain BA 9
1,O=C(Cc1cccs1)N[C@@H]1C(=O)N2C(C(=O)[O-])=C(C[n+]3ccccc3)CS[C@H]12 [chephaloridine],inhibited
2,CO[C@@H]1[C@@H](OC(N)=O)[C@@H](O)[C@H](Oc2ccc3c(O)c(NC(=O)c4ccc(O)c(CC=C(C)C)c4)c(=O)oc3c2C)OC1(C)C [novobiocib],inhibited

# Same assay, conditions: 10 μg; ISP medium No. 1+, 28° C., 2 d
row,Structure (SMILES),growth inhibition of strain BA 9
1,O=C(N[C@H](CO)[C@H](O)c1ccc([N+](=O)[O-])cc1)C(Cl)Cl [chloramphenicol],inhibited
2,CC[C@H]1OC(=O)[C@H](C)[C@@H](O[C@H]2C[C@@](C)(OC)[C@@H](O)[C@H](C)O2)[C@H](C)[C@@H](O[C@@H]2O[C@H](C)C[C@H](N(C)C)[C@H]2O)[C@](C)(O)C[C@@H](C)C(=O)[C@H](C)[C@@H](O)[C@]1(C)O [erythromycin],inhibited
3,CC(=O)O[C@H]1C[C@@]2(C)[C@@H](C[C@@H](O)[C@H]3[C@@]4(C)CC[C@@H](O)[C@@H](C)[C@@H]4CC[C@@]32C)/C1=C(\CCC=C(C)C)C(=O)O [fusidic acid],inhibited
4,CCC[C@@H]1C[C@@H](C(=O)N[C@@H]([C@H]2O[C@H](SC)[C@H](O)[C@@H](O)[C@H]2O)[C@@H](C)O)N(C)C1 [lincomycin],inhibited
5,[H]/N=C(/N)N[C@H]1[C@H](O)[C@@H](O)[C@H](O[C@@H]2O[C@@H](C)[C@](O)(C=O)[C@H]2O[C@@H]2O[C@@H](CO)[C@H](O)[C@@H](O)[C@@H]2NC)[C@@H](N/C(N)=N\[H])[C@@H]1O [streptomycin],inhibited
6,CN(C)C1C(=O)C(C(N)=O)=C(O)C2(O)C(=O)C3=C(O)c4c(O)cccc4C(C)(O)C3CC12 (stereo not drawn) [tetracycline],inhibited

# Same assay, conditions: 100 μg; ISP medium No. 1+, 28° C., 2 d
row,Structure (SMILES),growth inhibition of strain BA 9
1,Cc1noc(NS(=O)(=O)c2ccc(N)cc2)c1C [sulphafurazole],inhibited
